What follows are molecules tested against T1, human transferrin receptor (hTfR) (Homo sapiens, UniProt P02786) (assay: Evaluation of molecular interaction between transferrin receptor (hTfR) and peptide using surface plasmon resonance (SPR)). Conditions: KD class for binding to hTfR by SPR; peptide with the linker shown in the same line; 'low signal indicates no activity'; read-out: SPR.
T1 construct: made in house
Format: binding
Outline: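 Using a Ni-NTA surface bearing covalently coupled hTfR dimer, peptides were tested at five concentrations from 5 to 100 nM. Running buffer was 10 mM HEPES pH 8.0, 150 mM NaCl, 0.05% Tween 20, 0.1% BSA, 1.0% DMSO; single-cycle sensorgrams were least-squares fitted for KD.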

T1 sequence (P02786 89-760 limits assumed): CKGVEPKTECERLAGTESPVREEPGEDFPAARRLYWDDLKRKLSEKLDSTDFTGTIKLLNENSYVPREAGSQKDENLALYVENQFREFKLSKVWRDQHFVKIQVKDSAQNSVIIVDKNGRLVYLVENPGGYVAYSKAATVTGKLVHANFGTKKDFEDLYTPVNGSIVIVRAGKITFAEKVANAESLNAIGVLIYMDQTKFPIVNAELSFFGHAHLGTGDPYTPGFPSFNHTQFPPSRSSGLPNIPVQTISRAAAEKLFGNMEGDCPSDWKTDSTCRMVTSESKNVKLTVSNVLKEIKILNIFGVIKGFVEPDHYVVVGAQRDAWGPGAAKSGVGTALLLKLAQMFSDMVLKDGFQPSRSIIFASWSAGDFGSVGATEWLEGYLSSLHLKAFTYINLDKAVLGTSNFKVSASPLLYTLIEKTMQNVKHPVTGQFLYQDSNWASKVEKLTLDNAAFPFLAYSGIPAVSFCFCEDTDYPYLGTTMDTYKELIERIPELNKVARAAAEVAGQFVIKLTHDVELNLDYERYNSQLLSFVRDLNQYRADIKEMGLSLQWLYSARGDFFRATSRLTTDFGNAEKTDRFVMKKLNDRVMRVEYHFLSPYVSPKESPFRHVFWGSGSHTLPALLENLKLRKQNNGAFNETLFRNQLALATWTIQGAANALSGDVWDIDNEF

| SMILES | Kd [nM] |
| --- | --- |
| CC[C@H](C)[C@@H]1NC(=O)[C@H](Cc2ccc(OC)cc2)NC(=O)[C@H](Cc2ccc(O)cc2)NC(=O)[C@H](CC(N)=O)NC(=O)[C@H](Cc2c[nH]c3ccc(Cl)cc23)NC(=O)[C@H](C(C)C)NC(=O)[C@H](Cc2ccc(F)cc2)N(C)C(=O)[C@H](C(C)C)NC(=O)[C@H](C)NC(=O)CSC[C@@H](C(=O)NCC(=O)N[C@@H](CCCCN=[N+]=[N-])C(N)=O)NC(=O)[C@H](Cc2ccc(O)cc2)N(C)C(=O)[C@H](Cc2ccccc2)NC(=O)[C@H](CCCNC(=N)N)NC(=O)[C@H](CCCNC(=N)N)NC(=O)[C@H]([C@@H](C)CC)NC1=O [894_3156] | 1 to 100 |
| CC[C@H](C)[C@@H]1NC(=O)[C@H](Cc2ccc(OC)cc2)NC(=O)[C@H](Cc2ccc(O)cc2)NC(=O)[C@H](CC(N)=O)NC(=O)[C@H](Cc2c[nH]c3ccc(Cl)cc23)NC(=O)[C@H](C(C)C)NC(=O)[C@H](Cc2ccc(F)cc2)N(C)C(=O)[C@H](C(C)C)NC(=O)[C@H](C)NC(=O)CSC[C@@H](C(=O)NCC(=O)N[C@@H](CCCCN=[N+]=[N-])C(N)=O)NC(=O)[C@H](Cc2ccc(O)cc2)N(C)C(=O)[C@H](Cc2ccccc2)NC(=O)[C@@H](CCCNC(=N)N)NC(=O)[C@H](CCCNC(=N)N)NC(=O)[C@H]([C@@H](C)CC)NC1=O [894_3157] | 100 to 1000 |
| CC[C@H](C)[C@@H]1NC(=O)[C@H](Cc2ccc(OC)cc2)NC(=O)[C@H](Cc2ccc(O)cc2)NC(=O)[C@H](CC(N)=O)NC(=O)[C@H](Cc2c[nH]c3ccccc23)N(C)C(=O)[C@H](C(C)C)NC(=O)[C@H](Cc2ccncc2)N(C)C(=O)[C@H](C(C)C)NC(=O)[C@H](C)NC(=O)CSC[C@@H](C(=O)NCC(=O)N[C@@H](CCCCN=[N+]=[N-])C(N)=O)NC(=O)[C@H](Cc2ccc(O)cc2)N(C)C(=O)[C@H](Cc2ccccc2)NC(=O)[C@@H](CCCNC(=N)N)NC(=O)[C@H](CCCNC(=N)N)NC(=O)[C@H]([C@@H](C)CC)NC1=O [894_3158] | 1 to 100 |
| CC[C@H](C)[C@@H]1NC(=O)[C@H](Cc2ccc(OC)cc2)NC(=O)[C@H](Cc2ccc(O)cc2)NC(=O)[C@H](CC(N)=O)NC(=O)[C@H](Cc2c[nH]c3ccccc23)N(C)C(=O)[C@H](C(C)C)NC(=O)[C@H](Cc2cccc(C(=O)O)c2)N(C)C(=O)[C@H](C(C)C)NC(=O)[C@H](C)NC(=O)CSC[C@@H](C(=O)NCC(=O)N[C@@H](CCCCN=[N+]=[N-])C(N)=O)NC(=O)[C@H](Cc2ccc(O)cc2)N(C)C(=O)[C@H](Cc2ccccc2)NC(=O)[C@@H](CCCNC(=N)N)NC(=O)[C@H](CCCNC(=N)N)NC(=O)[C@H]([C@@H](C)CC)NC1=O [894_3159] | 100 to 1000 |
| CC[C@H](C)[C@@H]1NC(=O)[C@H](Cc2ccc(O)cc2)NC(=O)[C@H](Cc2ccc(O)cc2)NC(=O)[C@H](C)NC(=O)[C@H](Cc2c[nH]c3ccccc23)NC(=O)[C@H](C(C)C)NC(=O)[C@H](Cc2ccccc2)N(C)C(=O)[C@H](C(C)C)NC(=O)[C@H](C)NC(=O)CSC[C@@H](C(=O)NCC(=O)N[C@@H](CCCCN=[N+]=[N-])C(N)=O)NC(=O)[C@H](Cc2ccc(O)cc2)N(C)C(=O)[C@H](Cc2ccc(O)cc2)NC(=O)[C@H](CCCNC(=N)N)NC(=O)[C@H](CCCNC(=N)N)NC(=O)[C@H]([C@@H](C)CC)NC1=O [894_3160] | 100 to 1000 |
| CC[C@H](C)[C@@H]1NC(=O)[C@H](Cc2ccc(O)cc2)NC(=O)[C@H](Cc2ccc(O)cc2)NC(=O)[C@H](CC(N)=O)NC(=O)[C@H](Cc2c[nH]c3ccc(Cl)cc23)NC(=O)[C@H](C(C)C)NC(=O)[C@H](Cc2ccccc2)N(C)C(=O)[C@H](C(C)C)NC(=O)[C@H](C)NC(=O)CSC[C@@H](C(=O)NCC(=O)N[C@@H](CCCCN=[N+]=[N-])C(N)=O)NC(=O)[C@H](Cc2ccc(O)cc2)N(C)C(=O)[C@H](Cc2ccc(O)cc2)NC(=O)[C@H](CCCNC(=N)N)NC(=O)[C@H](CCCNC(=N)N)NC(=O)[C@H]([C@@H](C)CC)NC1=O [894_3161] | 1 to 100 |
| CC[C@H](C)[C@@H]1NC(=O)[C@H](Cc2ccc(OC)cc2)NC(=O)[C@H](Cc2ccc(O)cc2)NC(=O)[C@H](CC(N)=O)NC(=O)[C@H](Cc2c[nH]c3ccc(Cl)cc23)NC(=O)[C@H](C(C)C)NC(=O)[C@H](Cc2ccccc2)N(C)C(=O)[C@H](C(C)C)NC(=O)[C@H](C)NC(=O)CSC[C@@H](C(=O)NCC(=O)N[C@@H](CCCCN=[N+]=[N-])C(N)=O)NC(=O)[C@H](Cc2ccc(O)cc2)N(C)C(=O)[C@H](Cc2ccc(O)cc2)NC(=O)[C@H](CCCNC(=N)N)NC(=O)[C@H](CCCNC(=N)N)NC(=O)[C@H]([C@@H](C)CC)NC1=O [894_3162] | 1 to 100 |
| CC[C@H](C)[C@@H]1NC(=O)[C@H](Cc2ccc(OC)cc2)NC(=O)[C@H](Cc2ccc(O)cc2)NC(=O)[C@H](CC(N)=O)NC(=O)[C@H](Cc2c[nH]c3ccc(Cl)cc23)NC(=O)[C@H](C(C)C)NC(=O)[C@H](Cc2ccc(F)cc2)N(C)C(=O)[C@H](C(C)C)NC(=O)[C@H](C)NC(=O)CSC[C@@H](C(=O)NCC(=O)N[C@@H](CCCCN=[N+]=[N-])C(N)=O)NC(=O)[C@H](Cc2ccc(O)cc2)N(C)C(=O)[C@H](Cc2ccc(O)cc2)NC(=O)[C@H](CCCNC(=N)N)NC(=O)[C@H](CCCNC(=N)N)NC(=O)[C@H]([C@@H](C)CC)NC1=O [894_3163] | 1 to 100 |
| CC[C@H](C)[C@@H]1NC(=O)[C@H](Cc2ccc(OC)cc2)NC(=O)[C@H](Cc2ccc(O)cc2)NC(=O)[C@H](CC(N)=O)NC(=O)[C@H](Cc2c[nH]c3ccccc23)NC(=O)[C@H](C(C)C)NC(=O)[C@H](Cc2cccc(Cl)c2)N(C)C(=O)[C@H](C(C)C)NC(=O)[C@H](C)NC(=O)CSC[C@@H](C(=O)NCC(=O)N[C@@H](CCCCN=[N+]=[N-])C(N)=O)NC(=O)[C@H](Cc2ccc(O)cc2)N(C)C(=O)[C@H](Cc2ccc(O)cc2)NC(=O)[C@H](CCCNC(=N)N)NC(=O)[C@H](CCCNC(=N)N)NC(=O)[C@H]([C@@H](C)CC)NC1=O [894_3164] | 1 to 100 |
| CC[C@H](C)[C@@H]1NC(=O)[C@H](Cc2ccc(OC)cc2)NC(=O)[C@H](Cc2ccc(O)cc2)NC(=O)[C@H](CC(N)=O)NC(=O)[C@H](Cc2c[nH]c3ccccc23)NC(=O)[C@H](C(C)C)NC(=O)[C@H](Cc2cccc(Cl)c2)N(C)C(=O)[C@H](C(C)C)NC(=O)[C@H](C)NC(=O)CSC[C@@H](C(=O)NCC(=O)N[C@@H](CCCCN=[N+]=[N-])C(N)=O)NC(=O)[C@H](Cc2ccc(O)cc2)N(C)C(=O)[C@H](Cc2ccc(O)cc2)NC(=O)[C@H](CCCNC(=N)N)NC(=O)[C@H](CCCCN)NC(=O)[C@H]([C@@H](C)CC)NC1=O [894_3165] | 1 to 100 |
| CC[C@H](C)[C@@H]1NC(=O)[C@H](Cc2ccc(OC)cc2)NC(=O)[C@H](Cc2ccc(O)cc2)NC(=O)[C@H](CC(N)=O)NC(=O)[C@H](Cc2c[nH]c3ccccc23)N(C)C(=O)[C@H](C(C)C)NC(=O)[C@H](Cc2cccc(Cl)c2)N(C)C(=O)[C@H](C(C)C)NC(=O)[C@H](C)NC(=O)CSC[C@@H](C(=O)NCC(=O)N[C@@H](CCCCN=[N+]=[N-])C(N)=O)NC(=O)[C@H](Cc2ccc(O)cc2)N(C)C(=O)[C@H](Cc2ccc(O)cc2)NC(=O)[C@H](CCCNC(=N)N)NC(=O)[C@H](CCCNC(=N)N)NC(=O)[C@H]([C@@H](C)CC)NC1=O [894_3166] | 1 to 100 |
| CC[C@H](C)[C@@H]1NC(=O)[C@H](Cc2ccc(OCC(=O)O)cc2)NC(=O)[C@H](Cc2ccc(O)cc2)NC(=O)[C@H](CC(N)=O)NC(=O)[C@H](Cc2cn(CC(=O)O)c3ccccc23)NC(=O)[C@H](C(C)C)NC(=O)[C@H](Cc2cccc(Cl)c2)N(C)C(=O)[C@H](C(C)C)NC(=O)[C@H](C)NC(=O)CSC[C@@H](C(=O)NCC(=O)N[C@@H](CCCCN=[N+]=[N-])C(N)=O)NC(=O)[C@H](Cc2ccc(O)cc2)N(C)C(=O)[C@H](Cc2ccccc2)NC(=O)[C@H](CCCNC(=N)N)NC(=O)[C@H](CCCNC(=N)N)NC(=O)[C@H]([C@@H](C)CC)NC1=O [894_3171] | 1 to 100 |
| CC[C@H](C)[C@@H]1NC(=O)[C@H](Cc2ccc(OCC(=O)O)cc2)NC(=O)[C@H](Cc2ccc(O)cc2)NC(=O)[C@H](CC(N)=O)NC(=O)[C@H](Cc2cn(CC(=O)O)c3ccccc23)NC(=O)[C@H](C(C)C)NC(=O)[C@H](Cc2cccc(Cl)c2)N(C)C(=O)[C@H](C(C)C)NC(=O)[C@H](C)NC(=O)CSC[C@@H](C(=O)NCC(=O)N[C@@H](CCCCN=[N+]=[N-])C(N)=O)NC(=O)[C@H](Cc2ccc(O)cc2)N(C)C(=O)[C@H](Cc2ccccc2)NC(=O)[C@H](CCCNC(=N)N)NC(=O)[C@H](CCC(=O)NCCOCCOCCOCCOCCOCCOCCOCCOC)NC(=O)[C@H]([C@@H](C)CC)NC1=O [894_3172] | 1 to 100 |
| CC[C@H](C)[C@@H]1NC(=O)[C@H](Cc2ccc(OCC(=O)O)cc2)NC(=O)[C@H](Cc2ccc(O)cc2)NC(=O)[C@H](CC(N)=O)NC(=O)[C@H](Cc2cn(CC(=O)O)c3ccccc23)NC(=O)[C@H](C(C)C)NC(=O)[C@H](Cc2cccc(Cl)c2)N(C)C(=O)[C@H](C(C)C)NC(=O)[C@H](C)NC(=O)CSC[C@@H](C(=O)NCC(=O)N[C@@H](CCCCN=[N+]=[N-])C(N)=O)NC(=O)[C@H](Cc2ccc(O)cc2)N(C)C(=O)[C@H](Cc2ccccc2)NC(=O)[C@H](CCC(=O)NCCOCCOCCOCCOCCOCCOCCOCCOC)NC(=O)[C@H](CCCNC(=N)N)NC(=O)[C@H]([C@@H](C)CC)NC1=O [894_3173] | 1 to 100 |
| CC[C@H](C)[C@@H]1NC(=O)[C@H](Cc2ccc(OCC(=O)O)cc2)NC(=O)[C@H](Cc2ccc(O)cc2)NC(=O)[C@H](CC(N)=O)NC(=O)[C@H](Cc2cn(CC(=O)O)c3ccccc23)NC(=O)[C@H](C(C)C)NC(=O)[C@H](Cc2cccc(Cl)c2)N(C)C(=O)[C@H](C(C)C)NC(=O)[C@H](C)NC(=O)CSC[C@@H](C(=O)NCC(=O)N[C@@H](CCCCN=[N+]=[N-])C(N)=O)NC(=O)[C@H](Cc2ccc(O)cc2)N(C)C(=O)[C@H](Cc2ccccc2)NC(=O)[C@H](CCCNC(=N)N)NC(=O)[C@H](CCC(N)=O)NC(=O)[C@H]([C@@H](C)CC)NC1=O [894_3176] | 1 to 100 |

— patent publication US20260116920A1, “HUMAN TRANSFERRIN RECEPTOR BINDING PEPTIDE” (PEPTIDREAM INC., priority 2021, published 2026)
